Test results: patent publication US20080050755A1, “Method for screening for chemotherapeutic treatments for cancer” (priority 2000, published 2008)

System: Tcf/Lef reporter activity (endogenous β-catenin) in 293T cells
Experiment: Tcf/Lef reporter assay (pTOPFLASH/pFOPFLASH) in adriamycin-treated 293T cells
Type: cell-based
Conditions: 293T cells treated with 1 µg/ml adriamycin 8 hours after transfection for 16 hours; FIG. 6E
Text: FIGS. 6A, 6B, 6C, and 6E illustrate that Siah-1 mediates p53-induced degradation of β-catenin. […] 293T cells were transiently co-transfected with an internal control (pEGFP) and the indicated plasmids. The amount of DNA in each transfection was kept constant by the addition of an appropriate amount of empty expression vector. Whole cell lysates were subjected to Western analysis. Blots were probed with mouse monoclonal antibodies to the Myc epitope tag (upper panel) and GFP (lower panel). FIG. 6C illustrate the pulse-chase analysis of ectopically expressed Myc-tagged β-catenin. […] Immunoprecipitated Myc-β-catenin was subjected to SDS-PAGE and dried gels were analyzed with a PhosphorImager. […]
Cell culture, transfection, reporter assay, co-immunoprecipitation and immmunoblotting. […] Luciferase and β-galactosidase activity was measured 24 hours after transfecton. Tcf/Lef reporter activity was determined as described. […] The whole cell extract (WCE) was immunoprecipitated using a mouse monoclonal antibody specific for the amino-terminus of pAPC (Ab-5, Oncogene Research) or a control mouse IgG, and associated Myc-Siah-1 protein was detected by immunoblotting using an anti-Myc monoclonal antibody (9E10). The pAPC in WCE (20 µg) and immunoprecipitates was detected using an anti-APC mouse monoclonal antibody (Ab-1, Oncogene Research). […]

SMILES: COc1cccc2c1C(=O)c1c(O)c3c(c(O)c1C2=O)C[C@@](O)(C(=O)CO)C[C@@H]3O[C@H]1C[C@H](N)[C@H](O)[C@H](C)O1 [adriamycin]
- Tcf/Lef reporter activity (TOP/FOP): decreased Tcf/Lef reporter activity
